Patent US12637473B2, “MDM2 protein degraders” (THE REGENTS OF THE UNIVERSITY OF MICHIGAN, priority 2016, dated 2026)
Entries after “also recorded” stand apart in the source; their conditions may differ.

Assays:
Assay type in all cases: cell-based
[1] = tested on: MV4-11 cell line; assay: CellTiter-Glo Luminescent Cell Viability Assay, cell growth inhibition; conditions: Homo sapiens, 96 h, 4 days
Method in brief: (§1)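 Cells plated at 2,000/well with serially diluted compounds, incubated 4 days at 37° C, 5% CO2. Viability read by CellTiter-Glo luminescence after 10-20 min at room temperature; IC50 from dose-response fit.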

[2] = tested on: RS4; 11 cell line; assay: as above; conditions: Homo sapiens, 96 h, 4 days
Method in brief: as §1

[3] = tested on: p53 target genes: p21, PUMA and BAX; assay: Activation of p53 downstream target genes, quantitative real-time PCR; conditions: RS4, 11 cells, 10 nM; for mRNA levels of p21: FIG. 3; for mRNA levels of PUMA: FIG. 4; for mRNA levels of BAX: FIG. 5; for activation of p53 downstream target genes (mRNA levels of p21, PUMA, BAX): 3, 6, or 12 hours
Method: RS4; 11 cells were treated with Cpd. A (0.3 μM), Cpd. No. 15 (10 nM), and Cpd. No. 22 (10 nM) for 3, 6, or 12 hours, and then harvested and washed. Cellular mRNA samples were extracted from the cells and then subjected to Reverse Transcription and quantitative real-time PCR for the analysis of the mRNA levels of three representative p53 target genes: p21, that induces cell cycle arrest, and PUMA and BAX that leads to apoptosis. […] A, Cpd. No. 15, and Cpd. No. 22.

[4] = tested on: RS4; 11 cells; assay: Cell growth inhibition by WST assay with Cpd. C co-treatment (CRBN competition); design: LogIC50: unit not given here; conditions: for HillSlope / IC50 / LogIC50: 4 days; for shift of the dose response curves: co-treatment of Cpd. C (10, 20, or 30 μM)
Method: RS4; 11 cells were pre-incubated with different concentrations of Cpd. C to compete for the binding of phthalimide to CRBN, or DMSO, for 2 hours before adding Cpd. A, Cpd. No. 14, Cpd. No. 15, and Cpd. No. 22. The cells were then co-treated with 10, 20, or 30 μM Cpd. C and increasing concentrations of Cpd. A, Cpd. No. 14, Cpd. No. 15, and Cpd. No. 22 for 4 days, with a starting cell concentration of ˜15,000/well. Cell growth inhibition was determined by the WST assay. […] No. 14, Cpd. No. 15, and Cpd. No. 22 with co-treatment of Cpd. C. The structure of Cpd.

[5] = tested on: RS4; 11 cells with stable shRNA knockdown of p53; assay: Cell growth inhibition by WST assay, p53 knockdown cells; design: LogIC50: unit not given here; conditions: RS4;11 sh p53, 4 days; for IC50: Homo sapiens, 96 h
Method: (§2) RS4; 11 cells with stable shRNA knockdown of p53 or those transfected shRNA control vector were treated with Cpd. A, Cpd. B, Cpd. No. 14, Cpd. No. 21, Cpd. No. 15, and Cpd. No. 22 for 4 days, with a cell concentration of ˜15,000/well. Cell growth inhibition was determined by WST assay. See Table 7 (p53) and Table 8 (control). Significant increases in IC50 of the Compounds of the Disclosure in the p53 knockdown RS4; 11 cells were observed compared with that in the sh control cells. […] The p53 knockdown efficiency was determined by western blot for p53 protein levels with or without treatment of Cpd. A (1 μM) for 2 hours.

[6] = tested on: RS4; 11 cells transfected shRNA control vector; assay: Cell growth inhibition by WST assay, shRNA control cells; design: LogIC50: unit not given here; conditions: RS4;11 sh Control, 4 days; for IC50: Homo sapiens, 96 h
Method: as §2

[7] = molecular target: T1, MDM2 (Homo sapiens, UniProt Q00987); assay: MDM2 degradation and p53 activation, western blotting of cell lysates; design: endogenous in cells; conditions: for p53 activation: MV-4-11 cell line; for protein level of MDM2 (MDM2 degradation): MV-4-11 cells, 2 hours, compared to Cpd. A
T1 sequence (Q00987 whole entry): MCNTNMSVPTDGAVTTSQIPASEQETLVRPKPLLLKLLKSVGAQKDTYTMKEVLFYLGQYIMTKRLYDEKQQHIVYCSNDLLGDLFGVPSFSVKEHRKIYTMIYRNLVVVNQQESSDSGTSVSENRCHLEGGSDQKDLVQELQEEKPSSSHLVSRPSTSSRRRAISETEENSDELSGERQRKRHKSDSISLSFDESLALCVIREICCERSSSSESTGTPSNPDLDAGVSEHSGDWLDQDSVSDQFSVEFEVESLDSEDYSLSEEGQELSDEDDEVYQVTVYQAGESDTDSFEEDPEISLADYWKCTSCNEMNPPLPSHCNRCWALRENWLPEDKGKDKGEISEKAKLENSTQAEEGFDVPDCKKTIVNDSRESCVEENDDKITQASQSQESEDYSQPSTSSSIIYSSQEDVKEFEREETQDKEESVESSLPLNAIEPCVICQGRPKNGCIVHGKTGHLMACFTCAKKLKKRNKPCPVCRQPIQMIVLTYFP
Method: MV-4-11 cells were treated with Cpd. A, Cpd. B, Cpd. No. 15, and Cpd. No. 22 for 2 hours, then harvested and lysed. The cell lysates were subjected to western blotting analysis. […] No. 15 and Cpd. No. 22 as compared to Cpd. A, indicating MDM2 degradation.

[8] = molecular target: T1, MDM2; assay: as above; design: endogenous in cells; host or cells: RS4;11; conditions: RS4; for p53 activation: 11 cell line; for protein level of MDM2 (MDM2 degradation): 11 cells, 2 hours, compared to Cpd. A
Method: RS4; 11 cells were treated with Cpd. A, Cpd. B, Cpd. No. 15, and Cpd. No. 22 for 2 hours, then harvested and lysed. The cell lysates were subjected to western blotting analysis. […] No. 15 and Cpd. No. 22 as compared to Cpd. A, indicating MDM2 degradation. The structure of Cpd.

[9] = molecular target: T1, MDM2; assay: MDM2 degradation with or without proteasome inhibitor MG-132, western blotting; design: endogenous in cells; host or cells: RS4;11; conditions: FIG. 6
Method: RS4; 11 cells were pre-incubated with the proteasome inhibitor MG-132 (20 μM) or without any pre-incubation for 2 hours. Next, the cells were treated with Cpd. A (0.3 μM), Cpd. No. 14 (0.03 μM), Cpd. No. 15 (0.01 μM), and Cpd. No. 22 (0.01 μM) for 2 hours, then harvested and lysed. The cell lysates were subject to western blotting analysis.

[10] = molecular target: T1, MDM2; assay: MDM2 degradation and p53 activation after pre-incubation with Cpd. C, Western blot; design: endogenous in cells; host or cells: RS4;11; conditions: for MDM2 degradation, dependence on cereblon (CRBN): FIG. 7; for MDM2 degradation, competition by Cpd. C / p53 activation, competition by Cpd. C: RS4, 11 cells, pre-incubated with 30 μM Cpd. C for 2 hours
Method: RS4; 11 cells were pre-incubated with 30 μM Cpd. C to compete for the binding of phthalimide to CRBN, or DMSO, for 2 hours before adding Cpd. A, Cpd. No. 14, Cpd. No. 15, and Cpd. No. 22. In the Western blot RS4; 11 cells were then co-treated with the indicated compounds at the indicated concentrations after pre-incubation. […] No. 14, Cpd. No. 15, and Cpd.

[11] = Homo sapiens, 96 h, without Cpd. C

Structure (SMILES) | IC50 [1] [nM] | IC50 [2] [nM] | HillSlope ([4]; + 10 uM Cpd. C) | IC50 ([4]; + 10 uM Cpd. C) [nM] | LogIC50 ([4]; + 10 uM Cpd. C) | HillSlope ([4]; + 20 uM Cpd. C) | IC50 ([4]; + 20 uM Cpd. C) [nM] | LogIC50 ([4]; + 20 uM Cpd. C) | HillSlope ([4]; + 30 uM Cpd. C) | IC50 ([4]; + 30 uM Cpd. C) [nM] | LogIC50 ([4]; + 30 uM Cpd. C) | HillSlope ([4]; without Cpd. C) | LogIC50 ([4]; without Cpd. C) | IC50 [4, 11] [nM] | shift of the dose response curves [4] | IC50 [5] [nM] | HiliSlope [5] | LogIC50 [5] | IC50 [6] [nM] | HiliSlope [6] | other results
O=C1CCC(N2C(=O)c3cccc(NCCOCCOCCOCCNC(=O)c4ccc(NC(=O)[C@@H]5NC6(CCCCC6)[C@@]6(C(=O)Nc7cc(Cl)ccc76)[C@H]5c5cccc(Cl)c5F)cc4)c3C2=O)C(=O)N1 (stereo partly drawn) [Cpd. No. 15, (3′R,4'S,5′R)-6″-chloro-4′-(3-chloro-2-fluorophenyl)-N-(4-((2-(2-(2-(2-((2-(2,6-dioxopiperidin-3-yl)-1,3-dioxoisoindolin-4-yl)amino)ethoxy)ethoxy)ethoxy)ethyl)carbamoyl)phenyl)-2″-oxodispiro[cyclohexane-1,2′-pyrrolidine-3′,3″-indoline]-5′-carboxamide] | 2 | 4.4 | −1.654 | 44 | −1.356 | −1.540 | 68.2 | −1.167 | −1.416 | 62.4 | −1.205 | −1.839 | −2.312 | 4.87 | Significant rightward shifts | 110 | −0.8905 | −0.9565 | 7.47 | −1.626 | mRNA levels of p21 [3]: activate; mRNA levels of PUMA [3]: activate; mRNA levels of BAX [3]: activate; activation of p53 downstream target genes (mRNA levels of p21, PUMA, BAX) [3]: Significant activation; LogIC50 [6]: −2.127; p53 activation [7]: p53 activation; protein level of MDM2 (MDM2 degradation) [7]: induce MDM2 degradation; also recorded: significantly decreased; p53 activation [8]: p53 activation; protein level of MDM2 (MDM2 degradation) [8]: induce MDM2 degradation; also recorded: significantly decreased; MDM2 degradation, dependence on proteasome [9]: proteasome-dependent; MDM2 degradation, dependence on cereblon (CRBN) [10]: cereblon (CRBN)-dependent; MDM2 degradation, competition by Cpd. C [10]: significantly competed by Cpd. C; p53 activation, competition by Cpd. C [10]: significantly competed by Cpd. C
O=C1CCC(N2C(=O)c3cccc(NCCOCCOCCNC(=O)c4ccc(NC(=O)[C@@H]5NC6(CCCCC6)[C@@]6(C(=O)Nc7cc(Cl)ccc76)[C@H]5c5cccc(Cl)c5F)cc4)c3C2=O)C(=O)N1 (stereo partly drawn) [Cpd. No. 14, (3′R,4'S,5′R)-6″-chloro-4′-(3-chloro-2-fluorophenyl)-N-(4-((2-(2-(2-((2-(2,6-dioxopiperidin-3-yl)-1,3-dioxoisoindolin-4-yl)amino)ethoxy)ethoxy)ethyl)carbamoyl)phenyl)-2″-oxodispiro[cyclohexane-1,2′-pyrrolidine-3′,3″-indoline]-5′-carboxamide] | 7.6 | 8.5 | −1.705 | 57 | −1.244 | −1.667 | 81.1 | −1.091 | −1.600 | 77.4 | −1.111 | −1.996 | −2.147 | 7.13 | Significant rightward shifts | 501 | −0.4731 | −0.3000 | 9.67 | −1.475 | LogIC50 [6]: −2.014; MDM2 degradation, dependence on proteasome [9]: proteasome-dependent; MDM2 degradation, dependence on cereblon (CRBN) [10]: cereblon (CRBN)-dependent; MDM2 degradation, competition by Cpd. C [10]: significantly competed by Cpd. C; p53 activation, competition by Cpd. C [10]: significantly competed by Cpd. C
O=C1CCC(N2Cc3c(NCCOCCOCCOCCNC(=O)c4ccc(NC(=O)[C@@H]5NC6(CCCCC6)[C@@]6(C(=O)Nc7cc(Cl)ccc76)[C@H]5c5cccc(Cl)c5F)cc4)cccc3C2=O)C(=O)N1 (stereo partly drawn) [Cpd. No. 22, (3′R,4'S,5′R)-6″-chloro-4′-(3-chloro-2-fluorophenyl)-N-(4-((2-(2-(2-(2-((2-(2,6-dioxopiperidin-3-yl)-1-oxoisoindolin-4-yl)amino)ethoxy)ethoxy)ethoxy)ethyl)carbamoyl)phenyl)-2″-oxodispiro[cyclohexane-1,2′-pyrrolidine-3′,3″-indoline]-5′-carboxamide] | 2.7 | 4.7 | −1.701 | 61.7 | −1.209 | −1.530 | 89.6 | −1.048 | −1.341 | 83.2 | −1.080 | −1.803 | −2.242 | 5.73 | Significant rightward shifts | 137 | −0.8833 | −0.8628 | 9.45 | −1.567 | mRNA levels of p21 [3]: activate; mRNA levels of PUMA [3]: activate; mRNA levels of BAX [3]: activate; activation of p53 downstream target genes (mRNA levels of p21, PUMA, BAX) [3]: Significant activation; LogIC50 [6]: −2.025; p53 activation [7]: p53 activation; protein level of MDM2 (MDM2 degradation) [7]: induce MDM2 degradation; also recorded: significantly decreased; p53 activation [8]: p53 activation; protein level of MDM2 (MDM2 degradation) [8]: induce MDM2 degradation; also recorded: significantly decreased; MDM2 degradation, dependence on proteasome [9]: proteasome-dependent; MDM2 degradation, dependence on cereblon (CRBN) [10]: cereblon (CRBN)-dependent; MDM2 degradation, competition by Cpd. C [10]: significantly competed by Cpd. C; p53 activation, competition by Cpd. C [10]: significantly competed by Cpd. C
